Reference: patent publication US20130172246A1, “INSULIN GLARGINE VERSUS METFORMIN FOR THE FIRST-LINE TREATMENT OF EARLY TYPE-2 DIABETES” (priority 2011, published 2013)

Tested on: type 2 diabetes patients
Experiment: Continuous glucose monitoring (CGM) with standardized test meal, clinical trial insulin glargine vs. metformin
Type: in vivo, human
Set-up: AUC 2hpp value after a test meal - Visit 1 / AUC 2hpp value after a test meal - Visit 8 / AUC day 2 - visit 8 / AUC day 2 - change / AUC day 3 - visit 8 / AUC day 3 - change / AUC 2 h incremental after TM - visit 8 / AUC 2 h incremental after TM - change / AUC between 5.6 and fasting on day 2 - visit 8 / AUC between 5.6 and fasting on day 2 - change / AUC between 5.6 and fasting on day 3 - visit 8 / AUC between 5.6 and fasting on day 3 - change / AUC 2 h after test meal - visit 8 / AUC 2 h after test meal change: unit not given beside the values
Conditions: for Glycemic load - visit 8: (FG+Peak+2hppG)·⅓; for Glycemic load - visit 8 / MAGE - visit 8 / AUC day 2 - change / AUC day 2 - visit 8 / AUC day 3 - change / AUC day 3 - visit 8 / AUC between 5.6 and fasting on day 2 - change / AUC between 5.6 and fasting on day 3 - change / AUC 2 h after test meal change / AUC 2 h incremental after TM - change / Glycemic load - change / MAGE - change / AUC 2 h after test meal - visit 8 / AUC between 5.6 and fasting on day 2 - visit 8 / AUC between 5.6 and fasting on day 3 - visit 8 / AUC 2 h incremental after TM - visit 8: per protocol; for Glycemic load - visit 8 / MAGE - visit 8 / AUC day 2 - visit 8 / AUC day 3 - visit 8 / AUC 2 h after test meal - visit 8 / AUC between 5.6 and fasting on day 2 - visit 8 / AUC between 5.6 and fasting on day 3 - visit 8 / AUC 2 h incremental after TM - visit 8: week 36; for Glycemic load - visit 8 / AUC 2hpp value after a test meal - Visit 1 / MAGE - visit 8 / AUC 2 h after test meal change / AUC 2 h incremental after TM - change / Glycemic load - change / MAGE - change / AUC 2 h incremental after TM - visit 8 / AUC 2hpp value after a test meal - Visit 8: mean (SD); for fall of the total area under the curve (AUC-IG): CGM, p=0.04; for fall of the total area under the curve (AUC-IG) / decrease in the interstitial glucose level during CGM (Δ): start to end of study; for AUC 2hpp value after a test meal - Visit 1: baseline (week 0) before treatment; for MAGE - visit 8: mean amplitude of glycemic excursions; for AUC day 2 - change / AUC day 2 - visit 8: CGM day 2; for AUC day 2 - change / AUC day 3 - change / AUC between 5.6 and fasting on day 2 - change / AUC between 5.6 and fasting on day 3 - change / AUC 2 h after test meal change / AUC 2 h incremental after TM - change / Glycemic load - change / MAGE - change: change visit 1 to visit 8; for AUC day 2 - change / AUC day 2 - visit 8 / AUC day 3 - change / AUC day 3 - visit 8 / AUC between 5.6 and fasting on day 2 - change / AUC between 5.6 and fasting on day 3 - change / AUC 2 h after test meal - visit 8 / AUC between 5.6 and fasting on day 2 - visit 8 / AUC between 5.6 and fasting on day 3 - visit 8: mean; for AUC day 3 - change / AUC day 3 - visit 8: CGM day 3; for decrease in the interstitial glucose level during CGM (Δ): GLA vs. MET p=0.02; for AUC 2hpp value after a test meal - Visit 8: week 36 of treatment
Protocol: The primary target variable determined was the Area Under the Curve (AUC) in mmol/L/time in subcutaneous abdominal fat after a test meal (TM) in a 2-hour course, which was determined by continuous blood glucose monitoring. The test meal was administered on the 2nd day of the CGM as breakfast. • AUC [mmol/L/time] 2 h pp
CGMS: The system used for continuous glucose monitoring is the CGMS from Medtronic, CGMS® System Gold™ monitor/MiniMed glucose subcutaneous sensor. The system is authorized for continuous glucose monitoring over a period of 72 h. The measurement sensor is inserted into subcutaneous fat tissue with the aid of an applicator. The entire sensor is stuck on the skin using a plaster. This is followed by the calibration of the device for approximately 5 hours, during which the subcutaneous levels are synchronized with the capillary blood glucose levels. Over the course of 72 h, further calibrations are required, as recommended by the manufacturer. The measured data of the sensor are transmitted by means of radio frequency to the CGMS® System Gold™ monitor, which is worn on the belt for example. After completion of the measurement period, the sensor is removed and the data of the monitor are evaluated on the computer using the software. For the evaluation, only the measured data of the first 48 hours are used, since the accuracy of measurement decreases over the course of the third day.
Test meal: On the morning of the 2nd day of the CGM, there is a standardized test meal in the trial center. This test meal (TM) consists of 95 g of whole-wheat bread, 20 g of margarine, 25 g of fruit preserves, 25 g of cheese, 200 ml of orange juice, 200 ml of milk mix with banana, strawberry or cocoa with a total of 560 Kcal. Blood is taken from the patient prior to the TM (after night-time fasting period of at least 8 hours). Subsequently, the TM should be eaten within 15 min. From the 1st bite, the time is measured, and after 2 h have elapsed, a 2nd blood collection is performed. During the TM and during the two hours thereafter, the patient should move as little as possible so as not to falsify the monitoring.
The primary target variable is the AUC (BG) TM of the glucose concentration in subcutaneous abdominal fat after a standardized test meal over a period of 2 hours. The AUC is calculated accordina to the trapezoidal rule.
• Mean HbA1c, • Glycemic variability: • Standard deviation (SD) of the mean glucose concentration over 24 h (day 2), • MAGE—mean amplitude of glycemic excursion calculated as the mean from the glucose increases>1 SD of the mean glucose concentration over the course of 24 h • Glycemic load calculated by (FG+Peak+2hppG)·⅓ • Mean of C-peptide and intact proinsulin (fasting and 2 h pp) • Mean free fatty acids • Biomarkers of subclinical inflammation (hsCRP, PAI-1, leukocyte count fasting and 2 h postprandial) • Microalbuminuria (albumin/creatinine ratio) • Endothelial function at ball of thumb using laser Doppler (O2C) • Hypoglycemic intervals (time<3 mmol glucose) during CGM over 48 hours (day 2+3 after TM)
In the study in the previous examples, 75 patients (45 men, 30 women, mean age: 60.7±9.2 years) were examined, whose first diagnosis of type 2 diabetes dated back to less than 5 years and whose HbA1c level was between 6.5 and 8.5%. The patients were treated with either metformin (MET, 1000 mg b.i.d. (n=3)) or insulin glargine (GLA) q.d. just before bedtime (n=3). The insulin dose was adjusted for a target plasma glucose concentration (FPG) of ≦5.6 mmol/L according to a standardized titration algorithm. At the start and end of the study, the HbA1c level and the plasma glucose, proinsulin and C-peptide concentrations were determined. […] All the patients received a standardized test meal on the second day of the continuous glucose monitoring for comparison of the interindividual postprandial (pp) glucose excursions.

Insulin glargine
Glycemic load - visit 8: 8.8 (1.6)
fall of the total area under the curve (AUC-IG): 671.2 ± 507.9 mmol·min/L
postprandial plasma glucose two hours after a test meal and differences in AUC-IG after the test meal (GLA vs. MET): showed no significance
AUC 2hpp value after a test meal - Visit 1: 287.38 (67.235)
MAGE - visit 8: 8.0 (2.3)
AUC day 2 - change: −671.2
AUC day 2 - visit 8: 2000.3
AUC day 3 - change: −628.2
AUC day 3 - visit 8: 2045.0
AUC between 5.6 and fasting on day 2 - change: −565.4
AUC between 5.6 and fasting on day 3 - change: −571.5
AUC 2 h after test meal change: −63.0 (5.4)
AUC 2 h incremental after TM - change: −5.7 (40.4)
Glycemic load - change: −2.7 (1.9)
MAGE - change: −0.4 (3.4)
AUC 2 h after test meal - visit 8: 224.4
AUC between 5.6 and fasting on day 2 - visit 8: −58.5
AUC between 5.6 and fasting on day 3 - visit 8: −11.6
AUC 2 h incremental after TM - visit 8: 68.3 (24.6)
decrease in the interstitial glucose level during CGM (Δ): 2.4 ± 1.8 mmol/L
AUC 2hpp value after a test meal - Visit 8: 224.38 (40.048)

CN(C)C(=N)N=C(N)N [Metformin]
Glycemic load - visit 8: 8.5 (2.1)
fall of the total area under the curve (AUC-IG): 416.1 ± 537.6 mmol·min/L
AUC 2hpp value after a test meal - Visit 1: 256.50 (72.837)
MAGE - visit 8: 6.3 (2.4)
AUC day 2 - change: −416.1
AUC day 2 - visit 8: 1978.5
AUC day 3 - change: −411.5
AUC day 3 - visit 8: 1972.5
AUC between 5.6 and fasting on day 2 - change: −356.5
AUC between 5.6 and fasting on day 3 - change: −317.4
AUC 2 h after test meal change: −42.9 (73.1)
AUC 2 h incremental after TM - change: −5.8 (31.8)
Glycemic load - change: −1.7 (2.7)
MAGE - change: −0.8 (3.3)
AUC 2 h after test meal - visit 8: 213.6
AUC between 5.6 and fasting on day 2 - visit 8: −15.4
AUC between 5.6 and fasting on day 3 - visit 8: 41.1
AUC 2 h incremental after TM - visit 8: 49.6 (25.0)
decrease in the interstitial glucose level during CGM (Δ): 1.4 ± 1.8 mmol/L
AUC 2hpp value after a test meal - Visit 8: 213.61 (52.844)
